Experimental data from the supplement of paper PMC10307832.

Compound: C1=CC2=NC=CN=C2C=C1/C=C/3\C(=O)NC(=O)S3 + O=C(CCCCCCC(=O)Nc1ccccc1)NO [Vorinostat] (partner 1 µM)
Assay: relative viability (nuclei count vs DMSO), 5 days (fraction); higher = more cells survive
Settings: first compound 0.02 µM
Summary of the method: (§1)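 After 5 days of treatment, lung cancer cells in 1536-well plates were fixed and stained in a single step (final 0.05% Triton X-100, 1% formaldehyde, 1 ug/ml Hoechst) and their nuclei counted on 4× images. Treatment had been applied by pin tool the day after seeding as one drug alone or as a fixed anchor-drug dose with five library-drug doses (not always all listed) in √10 steps. Relative viability is the nuclei count of treated wells divided by that of vehicle wells, and values are medians of duplicate plates.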

| Cell Line | relative viability |
| --- | --- |
| NCI-H1944 | 0.515 |
| NCI-H1975 | 0.683 |
| RERF-LC-KJ | 0.714 |
| ABC-1 | 1.27 |
| NCI-H358 | 0.674 |
| NCI-H650 | 0.465 |
| PC-3 [JPC-3] | 0.939 |

Same assay, conditions: first compound 0.06325 µM

| Cell Line | relative viability |
| --- | --- |
| NCI-H1944 | 0.511 |
| NCI-H1975 | 0.734 |
| RERF-LC-KJ | 0.717 |
| ABC-1 | 1.16 |
| NCI-H358 | 0.714 |
| NCI-H650 | 0.377 |
| PC-3 [JPC-3] | 0.874 |

Same assay, conditions: first compound 0.2 µM

| Cell Line | relative viability |
| --- | --- |
| NCI-H1944 | 0.551 |
| NCI-H1975 | 0.735 |
| RERF-LC-KJ | 0.689 |
| ABC-1 | 1.56 |
| NCI-H358 | 0.725 |
| NCI-H650 | 0.434 |
| PC-3 [JPC-3] | 0.92 |

Same assay, conditions: first compound 0.6325 µM

| Cell Line | relative viability |
| --- | --- |
| NCI-H1944 | 0.536 |
| NCI-H1975 | 0.731 |
| RERF-LC-KJ | 0.63 |
| ABC-1 | 1.01 |
| NCI-H358 | 0.659 |
| NCI-H650 | 0.42 |
| PC-3 [JPC-3] | 0.766 |

Same assay, conditions: first compound 2 µM

| Cell Line | relative viability |
| --- | --- |
| NCI-H1944 | 0.512 |
| NCI-H1975 | 0.674 |
| RERF-LC-KJ | 0.635 |
| ABC-1 | 0.912 |
| NCI-H358 | 0.579 |
| NCI-H650 | 0.254 |
| PC-3 [JPC-3] | 0.654 |

Compound: C1=CC2=NC=CN=C2C=C1/C=C/3\C(=O)NC(=O)S3 + CCNC(=O)c1noc(-c2cc(C(C)C)c(O)cc2O)c1-c1ccc(CN2CCOCC2)cc1 [Luminespib] (partner 0.01 µM)
Assay: as above
Settings: first compound 0.02 µM
Summary of the method: as §1

| Cell Line | relative viability |
| --- | --- |
| NCI-H1944 | 0.667 |
| NCI-H1975 | 0.289 |
| RERF-LC-KJ | 1.2 |
| NCI-H358 | 0.265 |
| NCI-H650 | 0.719 |
| PC-3 [JPC-3] | 0.704 |

Same assay, conditions: first compound 0.06325 µM

| Cell Line | relative viability |
| --- | --- |
| NCI-H1944 | 0.515 |
| NCI-H1975 | 0.117 |
| RERF-LC-KJ | 1.52 |
| ABC-1 | 0.872 |
| NCI-H358 | 0.35 |
| NCI-H650 | 0.872 |
| PC-3 [JPC-3] | 0.767 |

Same assay, conditions: first compound 0.2 µM

| Cell Line | relative viability |
| --- | --- |
| NCI-H1944 | 0.75 |
| NCI-H1975 | 0.202 |
| RERF-LC-KJ | 1.23 |
| ABC-1 | 0.616 |
| NCI-H358 | 0.347 |
| NCI-H650 | 0.755 |
| PC-3 [JPC-3] | 0.732 |

Same assay, conditions: first compound 0.6325 µM

| Cell Line | relative viability |
| --- | --- |
| NCI-H1944 | 0.695 |
| NCI-H1975 | 0.149 |
| RERF-LC-KJ | 1.14 |
| ABC-1 | 0.519 |
| NCI-H358 | 0.224 |
| NCI-H650 | 0.709 |
| PC-3 [JPC-3] | 0.687 |

Same assay, conditions: first compound 2 µM

| Cell Line | relative viability |
| --- | --- |
| NCI-H1944 | 0.656 |
| NCI-H1975 | 0.174 |
| RERF-LC-KJ | 1.28 |
| ABC-1 | 0.982 |
| NCI-H358 | 0.182 |
| NCI-H650 | 0.627 |
| PC-3 [JPC-3] | 0.813 |

Compound: CCN1CCN(c2ccc(Nc3cc(N(C)C(=O)Nc4c(Cl)c(OC)cc(OC)c4Cl)ncn3)cc2)CC1 [BGJ398] + Cc1cc(Nc2cc(N3CCN(C)CC3)nc(Sc3ccc(NC(=O)C4CC4)cc3)n2)n[nH]1 [Tozasertib] (partner 0.1 µM)
Assay: as above
Settings: first compound 0.01 µM
Summary of the method: as §1

| Cell Line | relative viability |
| --- | --- |
| NCI-H1944 | 0.237 |
| NCI-H1975 | 0.774 |
| RERF-LC-KJ | 0.455 |
| ABC-1 | 0.186 |
| NCI-H358 | 0.0959 |
| NCI-H650 | 0.681 |
| PC-3 [JPC-3] | 0.958 |

Same assay, conditions: first compound 0.03162 µM

| Cell Line | relative viability |
| --- | --- |
| NCI-H1944 | 0.244 |
| NCI-H1975 | 0.758 |
| RERF-LC-KJ | 0.558 |
| ABC-1 | 0.168 |
| NCI-H358 | 0.0952 |
| NCI-H650 | 0.809 |

Same assay, conditions: first compound 0.1 µM

| Cell Line | relative viability |
| --- | --- |
| NCI-H1944 | 0.229 |
| NCI-H1975 | 0.695 |
| RERF-LC-KJ | 0.479 |
| ABC-1 | 0.197 |
| NCI-H358 | 0.109 |
| NCI-H650 | 0.802 |
| PC-3 [JPC-3] | 0.867 |

Same assay, conditions: first compound 0.3162 µM

| Cell Line | relative viability |
| --- | --- |
| NCI-H1944 | 0.27 |
| NCI-H1975 | 0.5 |
| RERF-LC-KJ | 0.441 |
| ABC-1 | 0.173 |
| NCI-H358 | 0.102 |
| NCI-H650 | 0.785 |
| PC-3 [JPC-3] | 0.829 |

Same assay, conditions: first compound 1 µM

| Cell Line | relative viability |
| --- | --- |
| NCI-H1944 | 0.273 |
| NCI-H1975 | 0.415 |
| RERF-LC-KJ | 0.533 |
| ABC-1 | 0.198 |
| NCI-H358 | 0.1 |
| NCI-H650 | 0.75 |
| PC-3 [JPC-3] | 0.842 |

Compound: C1=CC2=NC=CN=C2C=C1/C=C/3\C(=O)NC(=O)S3 + Cc1nc(Nc2ncc(C(=O)Nc3c(C)cccc3Cl)s2)cc(N2CCN(CCO)CC2)n1 [Dasatinib] (partner 0.075 µM)
Assay: as above
Settings: first compound 0.02 µM
Summary of the method: as §1

| Cell Line | relative viability |
| --- | --- |
| NCI-H1944 | 0.227 |
| NCI-H1975 | 0.293 |
| RERF-LC-KJ | 0.621 |
| ABC-1 | 0.507 |
| NCI-H358 | 0.151 |
| NCI-H650 | 0.524 |
| PC-3 [JPC-3] | 0.84 |

Same assay, conditions: first compound 0.06325 µM

| Cell Line | relative viability |
| --- | --- |
| NCI-H1944 | 0.191 |
| NCI-H1975 | 0.38 |
| RERF-LC-KJ | 0.911 |
| ABC-1 | 0.757 |
| NCI-H358 | 0.202 |
| NCI-H650 | 0.468 |
| PC-3 [JPC-3] | 1.05 |

Same assay, conditions: first compound 0.2 µM

| Cell Line | relative viability |
| --- | --- |
| NCI-H1944 | 0.209 |
| NCI-H1975 | 0.369 |
| RERF-LC-KJ | 0.933 |
| ABC-1 | 0.488 |
| NCI-H358 | 0.167 |
| NCI-H650 | 0.561 |
| PC-3 [JPC-3] | 0.968 |

Same assay, conditions: first compound 0.6325 µM

| Cell Line | relative viability |
| --- | --- |
| NCI-H1944 | 0.193 |
| NCI-H1975 | 0.334 |
| RERF-LC-KJ | 0.654 |
| ABC-1 | 0.611 |
| NCI-H358 | 0.14 |
| NCI-H650 | 0.415 |
| PC-3 [JPC-3] | 1.01 |

Same assay, conditions: first compound 2 µM

| Cell Line | relative viability |
| --- | --- |
| NCI-H1944 | 0.147 |
| NCI-H1975 | 0.318 |
| RERF-LC-KJ | 0.66 |
| ABC-1 | 0.538 |
| NCI-H358 | 0.105 |
| NCI-H650 | 0.286 |
| PC-3 [JPC-3] | 0.821 |
